In brackets after ≈: the same amount, converted by molar mass.
Test system: M. catarrhalis A894
Experiment: MIC determination by microdilution in cation-adjusted Mueller-Hinton Broth
Format: cell-based
Conditions: Moraxella catarrhalis, microdilution method, CLSI M7-A7
Experimental: Minimal inhibitory concentrations (MICs; mg/l) were determined in cation-adjusted Mueller-Hinton Broth by a microdilution method following the description given in “Methods for Dilution Antimicrobial Susceptibility Tests for Bacteria that Grow Aerobically”, Approved standard, 7th ed., Clinical and Laboratory Standards Institute (CLSI) Document M7-A7, Wayne, Pa., USA, 2006. All Example compounds were tested against several Gram positive and Gram negative bacteria such as S. aureus, E. faecalis, S. pneumoniae, M catarrhalis, A. baumanii, E.coli or P. aeruginosa.

SMILES | MIC [µg/mL]
COc1ccc2ccc(=O)n(CC3CN(CC[C@@H]4CN(c5ccc6c(c5)NC(=O)CS6)C(=O)O4)C3)c2c1 [Example 5, 6-((R)-5-{2-[3-(7-methoxy-2-oxo-2H-quinolin-1-ylmethyl)-azetidin-1-yl]-ethyl}-2-oxo-oxazolidin-3-yl)-4H-benzo[1,4]thiazin-3-one] | ≤ 0.031
COc1ccc2ccc(=O)n(CC3CCN(C[C@@H]4CN(c5ccc6c(c5)NC(=O)CS6)C(=O)O4)CC3)c2c1 [Example 7, 6-{(R)-5-[4-(7-methoxy-2-oxo-2H-quinolin-1-ylmethyl)-piperidin-1-ylmethyl]-2-oxo-oxazolidin-3-yl}-4H-benzo[1,4]thiazin-3-one] | ≤ 0.031
COc1ccc2c(c1)N(CC1CN(C[C@H]3CN(c4ccc5c(c4)NC(=O)CS5)C(=O)O3)C1)C(=O)CC2 [Example 11, 6-{(S)-5-[3-(7-methoxy-2-oxo-3,4-dihydro-2H-quinolin-1-ylmethyl)azetidin-1-ylmethyl]-2-oxo-oxazolidin-3-yl}-4H-benzo[1,4]thiazin-3-one] | ≤ 0.031
COc1ccc2c(c1)N(CC1CN(C[C@@H]3CN(c4ccc5c(c4)NC(=O)CS5)C(=O)O3)C1)C(=O)CC2 [Example 10, 6-{(R)-5-[3-(7-methoxy-2-oxo-3,4-dihydro-2H-quinolin-1-ylmethyl)azetidin-1-ylmethyl]-2-oxo-oxazolidin-3-yl}-4H-benzo[1,4]thiazin-3-one] | ≤ 0.031
COc1ccc2ccc(=O)n(CC3(O)CCN(CC[C@H]4CN(c5ccc6c(c5)NC(=O)CS6)C(=O)O4)C3)c2c1 (mixture of isomers) [Example 20, 6-((S)-5-{2-[(RS)-3-hydroxy-3-(7-methoxy-2-oxo-2H-quinolin-1-ylmethyl)-pyrrolidin-1-yl]-ethyl}-2-oxo-oxazolidin-3-yl)-4H-benzo[1,4]thiazin-3-one] | ≤ 0.031
COc1ccc2ncc(=O)n(CC3CN(C[C@@H]4CN(c5ccc6c(c5)NC(=O)CS6)C(=O)O4)C3)c2c1 [Example 4, 6-{(R)-5-[3-(7-methoxy-2-oxo-2H-quinoxalin-1-ylmethyl)-azetidin-1-ylmethyl]-2-oxo-oxazolidin-3-yl}-4H-benzo[1,4]thiazin-3-one] | ≤ 0.031
COc1ccc2ccc(=O)n(CC3CN(C[C@@H]4CN(c5ccc6c(c5)OCCO6)C(=O)O4)C3)c2c1 [Example 3, 1-{1-[(R)-3-(2,3-dihydro-benzo[1,4]dioxin-6-yl)-2-oxo-oxazolidin-5-ylmethyl]-azetidin-3-ylmethyl}-7-methoxy-1H-quinolin-2-one] | 0.063 (≈ 0.132 µM)
COc1ccc2ncc(=O)n(CC3CN(CC[C@@H]4CN(c5ccc6c(c5)NC(=O)CS6)C(=O)O4)C3)c2c1 [Example 6, 6-((R)-5-{2-[3-(7-methoxy-2-oxo-2H-quinoxalin-1-ylmethyl)-azetidin-1-yl]-ethyl}-2-oxo-oxazolidin-3-yl)-4H-benzo[1,4]thiazin-3-one] | ≤ 0.031
COc1ccc2ncc(=O)n(C3CCN(C[C@@H]4CN(c5ccc(C)c(F)c5)C(=O)O4)CC3)c2n1 [Example 24, 4-{1-[(R)-3-(3-fluoro-4-methyl-phenyl)-2-oxo-oxazolidin-5-ylmethyl]-piperidin-4-yl}-6-methoxy-4H-pyrido[2,3-b]pyrazin-3-one] | ≤ 0.031
COc1ccc2ncc(=O)n(C3CCN(C[C@@H]4CN(c5ccc6c(c5)NC(=O)CO6)C(=O)O4)CC3)c2n1 [Example 16, 6-methoxy-4-{1-[(R)-2-oxo-3-(3-oxo-3,4-dihydro-2H-benzo[1,4]oxazin-6-yl)-oxazolidin-5-ylmethyl]-piperidin-4-yl}-4H-pyrido[2,3-b]pyrazin-3-one] | ≤ 0.031
COc1ccc2ccc(=O)n(CC3CCN(C[C@@H]4CN(c5ccc6c(c5)OCCO6)C(=O)O4)CC3)c2c1 [Example 8, 1-{1-[(R)-3-(2,3-dihydro-benzo[1,4]dioxin-6-yl)-2-oxo-oxazolidin-5-ylmethyl]-piperidin-4-ylmethyl}-7-methoxy-1H-quinolin-2-one] | 1 (≈ 1.98 µM)
COc1ccc2ccc(=O)n(CC3CCN(C[C@@H]4CN(c5ccc(C)c(F)c5)C(=O)O4)CC3)c2c1 [Example 9, 1-{1-[(R)-3-(3-fluoro-4-methyl-phenyl)-2-oxo-oxazolidin-5-ylmethyl]-piperidin-4-ylmethyl}-7-methoxy-1H-quinolin-2-one] | 1 (≈ 2.09 µM)
COc1ccc2ncc(=O)n(C3CCN(C[C@@H]4CN(c5ccc6c(c5)OCCO6)C(=O)O4)CC3)c2n1 [Example 22, 4-{1-[(R)-3-(2,3-dihydro-benzo[1,4]dioxin-6-yl)-2-oxo-oxazolidin-5-ylmethyl]-piperidin-4-yl}-6-methoxy-4H-pyrido[2,3-b]pyrazin-3-one] | ≤ 0.031
COc1ccc2ncc(=O)n(C3CCN(C[C@@H]4CN(c5ccc6c(c5)NC(=O)CS6)C(=O)O4)CC3)c2n1 [Example 15, 6-methoxy-4-[1-{(R)-2-oxo-3-(3-oxo-3,4-dihydro-2H-benzo[1,4]thiazin-6-yl)-oxazolidin-5-ylmethyl]-piperidin-4-yl}-4H-pyrido[2,3-b]pyrazin-3-one] | ≤ 0.031
COc1ccc2ccc(=O)n(CC3(O)CCN(C[C@H]4CN(c5ccc6c(c5)NC(=O)CS6)C(=O)O4)C3)c2c1 (mixture of isomers) [Example 19, 6-{(S)-5-[(RS)-3-hydroxy-3-(7-methoxy-2-oxo-2H-quinolin-1-ylmethyl)pyrrolidin-1-ylmethyl]-2-oxo-oxazolidin-3-yl}-4H-benzo[1,4]thiazin-3-one] | ≤ 0.031
COc1ccc2ncc(=O)n(CC3CN(C[C@@H]4CN(c5ccc6c(c5)OCCO6)C(=O)O4)C3)c2c1 [Example 14, 1-{1-[(R)-3-(2,3-dihydro-benzo[1,4]dioxin-6-yl)-2-oxo-oxazolidin-5-ylmethyl]-azetidin-3-ylmethyl}-7-methoxy-1H-quinoxalin-2-one] | 0.25 (≈ 0.522 µM)
COc1ccc2ccc(=O)n(CC3(O)CN(C[C@@H]4CN(c5ccc6c(c5)NC(=O)CS6)C(=O)O4)C3)c2c1 [Example 1, 6-{(R)-5-[3-hydroxy-3-(7-methoxy-2-oxo-2H-quinolin-1-ylmethyl)azetidin-1-ylmethyl]-2-oxo-oxazolidin-3-yl}-4H-benzo[1,4]thiazin-3-one] | ≤ 0.031

Now from value to molecule:

MIC [µg/mL] | SMILES
0.5 (≈ 1.02 µM) | COc1ccc2c(c1)N(CC1CN(C[C@@H]3CN(c4ccc5c(c4)NC(=O)CO5)C(=O)O3)C1)C(=O)CC2 [Example 12, 6-{(R)-5-[3-(7-methoxy-2-oxo-3,4-dihydro-2H-quinolin-1-ylmethyl)azetidin-1-ylmethyl]-2-oxo-oxazolidin-3-yl}-4H-benzo[1,4]oxazin-3-one]
≤ 0.031 | COc1ccc2ncc(=O)n(C3CCN(CC[C@H]4CN(c5ccc6c(c5)NC(=O)CS6)C(=O)O4)CC3)c2n1 [Example 23, 6-methoxy-4-(1-{2-[(S)-2-oxo-3-(3-oxo-3,4-dihydro-2H-benzo[1,4]thiazin-6-yl)-oxazolidin-5-yl]-ethyl}-piperidin-4-yl)-4H-pyrido[2,3-b]pyrazin-3-one]
≤ 0.031 | COc1ccc2ccc(=O)n(CC3(O)CCN(CC[C@@H]4CN(c5ccc6c(c5)NC(=O)CS6)C(=O)O4)C3)c2c1 (mixture of isomers) [Example 21, 6-((R)-5-{2-[(RS)-3-hydroxy-3-(7-methoxy-2-oxo-2H-quinolin-1-ylmethyl)-pyrrolidin-1-yl]-ethyl}-2-oxo-oxazolidin-3-yl)-4H-benzo[1,4]thiazin-3-one]
≤ 0.031 | COc1ccc2ccc(=O)n(CC3CN(C[C@@H]4CN(c5ccc6c(c5)NC(=O)CS6)C(=O)O4)C3)c2c1 [Example 2, 6-{(R)-5-[3-(7-methoxy-2-oxo-2H-quinolin-1-ylmethyl)-azetidin-1-ylmethyl]-2-oxo-oxazolidin-3-yl}-4H-benzo[1,4]thiazin-3-one]
≤ 0.031 | COc1ccc2ncc(=O)n(C3CCN(CC[C@@H]4CN(c5ccc6c(c5)NC(=O)CS6)C(=O)O4)CC3)c2n1 [Example 25, 6-methoxy-4-(1-{2-[(R)-2-oxo-3-(3-oxo-3,4-dihydro-2H-benzo[1,4]thiazin-6-yl)-oxazolidin-5-yl]-ethyl}-piperidin-4-yl)-4H-pyrido[2,3-b]pyrazin-3-one]
≤ 0.031 | COc1ccc2ccc(=O)n(C[C@@H]3CCN(C[C@@H]4CN(c5ccc6c(c5)NC(=O)CS6)C(=O)O4)C3)c2c1 [Example 17, 6-{(R)-5-[(R)-3-(7-methoxy-2-oxo-2H-quinolin-1-ylmethyl)-pyrrolidin-1-ylmethyl]-2-oxo-oxazolidin-3-yl}-4H-benzo[1,4]thiazin-3-one]
≤ 0.031 | COc1ccc2ccc(=O)n(CC3(O)CCN(C[C@@H]4CN(c5ccc6c(c5)NC(=O)CS6)C(=O)O4)C3)c2c1 (mixture of isomers) [Example 18, 6-{(R)-5-[(RS)-3-hydroxy-3-(7-methoxy-2-oxo-2H-quinolin-1-ylmethyl)pyrrolidin-1-ylmethyl]-2-oxo-oxazolidin-3-yl}-4H-benzo[1,4]thiazin-3-one]
≤ 0.031 | COc1ccc2ncc(=O)n(CC3CN(C[C@@H]4CN(c5ccc6c(c5)NC(=O)CO6)C(=O)O4)C3)c2c1 [Example 13, 6-{(R)-5-[3-(7-methoxy-2-oxo-2H-quinoxalin-1-ylmethyl)-azetidin-1-ylmethyl]-2-oxo-oxazolidin-3-yl}-4H-benzo[1,4]oxazin-3-one]

From patent publication US8507478B2, “Oxazolidinyl antibiotics” (Actelion Pharmaceuticals Ltd., priority 2008, dated 2013)
